Laboratory results taken from US20020151599A1, “FORMULATIONS HAVING AN ANTIVIRAL ACTION” (priority 1999, published 2002).

Legend:
solubility in solvents = format: physicochemical
From the text: By virtue of its solubility profile, the compound is readily miscible, in some cases using solubilizers, with oils, fats and emulsions and, in view of its profile of properties, can be used in combination with other known light protection filters. […] In view of the property profile of isoquercitrin, it is easy for the person skilled in the art to choose suitable solvents and additives depending on the desired preparation product. It is particularly easy to prepare emulsions, gels or emulsion care sticks with isoquercitrin. It is, however, also possible to prepare all other cosmetic formulations, such as ointments, creams, lotions, oils, sticks and sprays, and also pharmaceutical formulations in solid or liquid form using appropriate additives.

herpes simplex viruses = conditions: compounds of the same aglycone compared; quercetin active only in very high doses, if at all; cited from earlier work

**Q.** Which “skin tolerance, toxic or allergic reaction” value (skin tolerability) does the source give for `O=c1c(O[C@@H]2O[C@H](CO)[C@@H](O)[C@H](O)[C@H]2O)c(-c2ccc(O)c(O)c2)oc2cc(O)cc(O)c12` [isoquercitrin] here?
**A.** The value was “well tolerated by the skin”.

**Q.** And the “solubility in polar solvents” value (solubility in solvents; ethanol or 1,2-propylene glycol)?
**A.** The value was “particularly readily soluble”.

**Q.** And the solubility in glycerol (solubility in solvents; glycerol, forms a slightly cloudy solution)?
**A.** The solubility in glycerol was “soluble in glycerol”.

**Q.** For `O=c1c(O)c(-c2ccc(O)c(O)c2)oc2cc(O)cc(O)c12` [quercetin], which antiviral effects (herpes simplex viruses) is on record?
**A.** The antiviral effects was “virtually no antiviral effects”.
